According to patent US20180353486A1, “METHODS AND PHARMACEUTICAL COMPOSITIONS FOR THE TREATMENT OF DARIER DISEASE” (INSERM (Institut National de la Sante et de la Recherche …, priority 2015, published 2018):

How the values were obtained:
[1] = tested on: NFATc1 in normal keratinocytes (NKs); test: NFATc1 expression and nuclear localization (qRT-PCR, western blot) in thapsigargin-treated normal keratinocytes; assay type: cell-based, human; details: 1 μM TG
Method: (§1) FIG. 4: TG-treated NK display the same features as DK. NKs were pretreated (TG) or not (−) with 1 μM of TG for 24 hours. a-b. […] Reversion by CsA treatment. c-d. TG-treated NK display premature differentiation markers up-regulation. SPRR2, LCE3B-E and loricrin expression is induced after 24 h (TG24) and 48 h (TG48) of TG-treatment in NK. *P<0.05. Results are from NKs from two donors (a) and one donor (b-d) and are representative of two independent experiments from two NKs.
To test whether loss of SERCA2 function is sufficient to induce NFATc1 overexpression and activation associated with premature expression of EDC genes, NKs were treated with 1 μM of thapsigargin (TG), a SERCA pumps inhibitor, for 24 and/or 48 hours to mimick SERCA2 dysfunction in DK.

[2] = tested on: LCE3D, LCE3E, SPRR2B, SPRR2D and loricrin in normal keratinocytes (NKs); test: Expression of EDC differentiation genes (qRT-PCR, western blot) in thapsigargin-treated normal keratinocytes; assay type: cell-based, human; details: 1 μM TG, 24 and/or 48 hours
Method: as §1
In order to confirm that upregulation of differentiation genes is due to SERCA2 defect, qRT-PCR and western blot analysis were performed on TG-treated NKs.

[3] = tested on: NFATc1 nuclear localization in Darier keratinocytes (DKs); test: NFATc1 nuclear/cytoplasmic localization by western blot in Darier keratinocytes; assay type: cell-based, human; details: 100 ng/ml Tacrolimus, 24 hours
Method: Nuclear (N) and cytoplasmic (C) cell extracts were immunoblotted for NFATc1 and actin for normalization.
Therefore, we treated healthy keratinocytes and DKs with 10 μM of CsA or 100 ng/ml of Tacrolimus for 24 hours. Western blot experiments using a specific antibody directed against NFATc1 were performed on nuclear and cytosolic extracts.

[4] = tested on: LCE3D, LCE3E, SPRR2B, SPRR2D and loricrin in Darier keratinocytes (DKs); test: Expression of EDC differentiation genes (qRT-PCR, western blot) in Darier keratinocytes after NFATc1 inhibition; assay type: cell-based, human
Method: FIG. 5: Calcineurin inhibitors and NFATc1 inhibition decreased premature differentiation in DK. Quantitative RT-PCR and western blot were performed on mRNA and protein extracts from five DKs after 48 h Tacrolimus (a-b) or 24 h and 48 h CsA treatment (b). For (a), results are expressed as fold repression compared to non-treated DK and are the mean+/−SEM of five DK. Results are representative of two independent experiments. Asterisks represent statistical significance versus the appropriate control in each case. *P<0.05 and***P<0.001 c. Relative efficiency of small interfering RNA (siRNA)-mediated NFATc1 silencing compared to scrambled control by quantitative PCR and western blotting. Decreased expression of differentiation genes after NFATc1 specific inhibition at mRNA (d). For (d), results are expressed as fold repression compared to DKs transfected with scrambled si-RNA and are the mean+/−SEM of four DK from one experiment.
To substantiate the role of NFATc1 as an enhancer of EDC genes expression in DKs and TG-treated NKs grown in basal condition, we inhibited NFATc1 activation indirectly (using calcineurin inhibitors) and directly (using small interfering RNA-mediated NFATc1 silencing), in Darier keratinocytes.
DKs maintained in proliferating conditions were treated with 100 ng ml^−1 of Tacrolimus for 24 hours.

[5] = tested on: Darier disease; details: few isolated cases, when retinoids were not recommended; systemic Cyclosporin, topical Tacrolimus; cited from earlier work

SMILES	NFATc1 expression (quantitative RT-PCR) ([1]; 24 hours)	NFATc1 protein in nuclear extracts (western blot) ([1]; vs non-treated NKs)	Expression of LCE3D, LCE3E, SPRR2B, SPRR2D and loricrin transcripts and proteins (qRT-PCR, western blot) [2]	NFATc1 localization in nuclear and cytosolic extracts (western blot) [3]	Expression of LCE3D, LCE3E, SPRR2B, SPRR2D and loricrin (quantitative RT-PCR) ([4]; DKs in proliferating conditions, 100 ng ml^−1 Tacrolimus, 24 hours)	LCE3B-E, SPRR2 and loricrin protein expression (western blot) ([4]; DKs, Tacrolimus treatment)	Treatment of Darier disease in patients [5]
C/C=C(/C)C(=O)O[C@H]1C(C)=C2[C@H]([C@@H]1OC(=O)CCCCCCC)[C@@](C)(OC(C)=O)C[C@H](OC(=O)CCC)[C@@]1(O)[C@H]2OC(=O)[C@@]1(C)O [TG, thapsigargin]	increased NFATc1 expression	a higher amount of NFATc1 protein was located in the nucleus	increased expression	–	–	–	–
C=CC[C@@H]1/C=C(\C)C[C@H](C)C[C@H](OC)[C@H]2O[C@@](O)(C(=O)C(=O)N3CCCC[C@H]3C(=O)O[C@H](/C(C)=C/[C@@H]3CC[C@@H](O)[C@H](OC)C3)[C@H](C)[C@@H](O)CC1=O)[C@H](C)C[C@@H]2OC [Tacrolimus]	–	–	–	induced NFATc1 translocation from the nucleus to the cytoplasm	significantly decreased	reduced LCE3B-E, SPRR2 and loricrin expression	successfully used
